Measured values reported in patent US10086054B2, “RM2 antigens and use thereof” (ACADEMIA SINICA, priority 2013, dated 2018).
Read-outs that look alike come from different tables or passages of the source.

Assays:
[1] = tested on: RM2 (a mouse IgM anti-RM2 monoclonal antibody); experiment: Glycan array binding specificity of monoclonal antibody RM2; details: glycans printed at 100 μM; FIG. 11
Experimental: An expanded glycan array containing the synthesized hexasaccharide 1 and its analogs along with the other ninety glycans are incorporated to a glycan array for testing (Figure S4). All glycans were directly immobilized onto NHS-coated glass slides by taking an aliquot from a stock solution of sugar at a fixed concentration (100 μM). The assay involved an initial treatment with RM2 (a mouse IgM anti-RM2 monoclonal antibody, a kind gift from Prof. Saito), followed by incubation with a fluorescein-tagged anti mouse IgM secondary antibody against its primary antibody. After one hour incubation, the slides were washed with ddH2O twice and scanned to show the binding specificity of the antibody to printed oligosaccharides. […] To determine the dissociation the dissociation constants of RM2 and truncated analogs on the surface interacting with the antibody in a multivalent manner, the direct measurement method was experimented (Liang, P. H.; Wang, S. K.; Wong, C. H. J. Am. Chem. Soc. 2007, 129, 11177), using different concentrations of antibodies and printed sugars. […] Using the same method, the KD,surf values were determined for the truncated RM2 analog 29 interacting with the antibody (FIG. 21 and Table S2). […]

monoclonal RM2 antibody = experiment: Determination of surface dissociation constant (KD,surf) on glycan microarray; assay type: binding, mouse
Experimental: An expanded glycan array containing the synthesized hexasaccharide 1 and its analogs along with the other ninety glycans are incorporated to a glycan array for testing (Figure S4). All glycans were directly immobilized onto NHS-coated glass slides by taking an aliquot from a stock solution of sugar at a fixed concentration (100 μM). The assay involved an initial treatment with RM2 (a mouse IgM anti-RM2 monoclonal antibody, a kind gift from Prof. Saito), followed by incubation with a fluorescein-tagged anti mouse IgM secondary antibody against its primary antibody. After one hour incubation, the slides were washed with ddH2O twice and scanned to show the binding specificity of the antibody to printed oligosaccharides. […] To determine the dissociation the dissociation constants of RM2 and truncated analogs on the surface interacting with the antibody in a multivalent manner, the direct measurement method was experimented (Liang, P. H.; Wang, S. K.; Wong, C. H. J. Am. Chem. Soc. 2007, 129, 11177), using different concentrations of antibodies and printed sugars. […] At the printing concentrations from 100 μM to 6.25 μM, however, it was observed that the KD,surf values measured were narrowly distributed from the individual curves (FIG. 20 and Table 1). Using the same method, the KD,surf values were determined for the truncated RM2 analog 29 interacting with the antibody (FIG. 21 and Table S2).
The slides were spotted with solution of RM2 1 and 29 with concentrations 100, 50, 25, 12.5, and 6.25 μM 2 rows from top to bottom with 5 replicates horizontally placed in each grids. The glycan microarray was blocked with 50 mM ethanolamine for 1 h at 0° C. and washed three times with PBST buffer before use. The monoclonal RM2 antibody was diluted with 3% BSA/PBST buffer (PBST buffer: PBS and 0.05% Tween-20, pH 7.4). Next, Cy3-conjugated goat anti-mouse IgM antibody was added into the diluted solution to precomplex with primary antibody. The precomplexed solution was applied to each well and incubated at 0° C. for 1 h in the dark. Finally, the slides were washed by PBST washing buffer and ddH2O in sequence. The slides were spin-dried for 5 minutes before scanned at 635 nm with a microarray fluorescence chip reader (GenePix 4300A; Molecular Devices Corporation). Scanned images were analyzed with GenePix Pro-6.0 analysis software (Axon Instruments, Union City, Calif., USA).

[2] = tested on: induced IgG antibodies by DT-RM4.7/C34 vaccine; experiment: Specificity analysis of antibodies induced by DT-RM4.7/C34 vaccine on glycan microarray; assay type: binding, mouse; details: sera of DT-RM4.7/C34-immunized mice; for binding of induced IgG antibodies to glycan: FIG. 14; for binding of induced antibodies to glycan, microarray of STn, DSGG, RM2 antigen, analogs and fragments: FIG. 15
Experimental: It was observed that these oligosaccharides all contain the same epitope trisaccharide 27 (NeuAcα2→6GlcNAcβ1→3Galβ1→R). To further evaluate the vaccine specificity, a glycan microarray created by STn, DSGG, RM2 antigen, RM2 antigen analogs, and RM2 antigen fragments was constructed (FIG. 15).
Microarrays were printed (BioDot; CartesianTechnologies) by robotic pin (SMP3; TeleChem In-ternational Inc.) deposition of 0.7 nL 100 μM amine-containing glycans in printing buffer (300 mM phosphate buffer, pH 8.5, containing 0.01% TritonX-100) from a […] microtiter plate onto N-Hydroxysuccinimide (NHS)-coated glass slides. Subsequently, a 96-glycan microarray (Fig. S2) was used to determine the polyclonal Ab spectrum of DT-RM series-induced antiserum. Printed slides were allowed to react in an atmosphere of 80% humidity for 1 h followed by desiccation overnight. These slides were stored at room temperature in a desiccator prior to use.
Mouse sera were diluted with 1% BSA/PBST buffer (PBST buffer: PBS and 0.05% Tween-20, pH 7.4). The glycan microarray was blocked with 50 mM ethanolamine for 1 h at 0° C. and washed three times with PBST buffer before use. The serum dilutions were then introduced to the glycan microarray and incubated at 0° C. for 1 h. Next, Cy3-conjugated goat anti-mouse IgG (H+L), IgG1, IgG2a, IgG2b, IgG2c, IgG3, or anti-mouse IgM was added to the microarray slide and then sealed for 1 h incubation at 0° C. in the dark. Finally, the slides were washed three times with PBST, PBST washing buffer, and ddH2O in sequence. The slides were spin-dried for 5 minutes before scanned at 635 nm with a microarray fluorescence chip reader (GenePix 4300A; Molecular Devices Corporation). Scanned images were analyzed with GenePix Pro-6.0 analysis software (Axon Instruments, Union City, Calif., USA).

[3] = antibody RM2, glycan printed on microarray, read-out: KD, surf (nM) ± SD

SMILES: CC(=O)N[C@@H]1[C@@H]([C@H](O)[C@H](O)CO)O[C@](O[C@@H]2[C@@H](O)[C@H](O[C@H]3[C@H](O)[C@@H](CO[C@]4(C(=O)O)C[C@H](O)[C@@H](NC(C)=O)[C@H]([C@H](O)[C@H](O)CO)O4)O[C@@H](O[C@H]4[C@@H](O)[C@@H](CO)O[C@@H](OCCCCCN)[C@@H]4O)[C@@H]3NC(C)=O)O[C@H](CO)[C@@H]2O[C@@H]2O[C@H](CO)[C@H](O)[C@H](O)[C@H]2NC(C)=O)(C(=O)O)C[C@H]1O [Compound 1]
- binding specificity of the antibody to printed oligosaccharides [1]: recognize hexasaccharide 1 specifically
- Fmax (monoclonal RM2 antibody; RM2 printing concentration 6.25 μM): 45,483
- Kd (monoclonal RM2 antibody; RM2 printing concentration 6.25 μM, read-out: KD, surf): 4.72 nM
- Fmax (monoclonal RM2 antibody; RM2 printing concentration 12.5 μM): 45,028
- Kd (monoclonal RM2 antibody; RM2 printing concentration 12.5 μM, read-out: KD, surf): 3.14 nM
- Fmax (monoclonal RM2 antibody; RM2 printing concentration 25 μM): 47,714
- Kd (monoclonal RM2 antibody; RM2 printing concentration 25 μM, read-out: KD, surf): 4.28 nM
- Fmax (monoclonal RM2 antibody; RM2 printing concentration 50 μM): 53,982
- Kd (monoclonal RM2 antibody; RM2 printing concentration 50 μM, read-out: KD, surf): 5.48 nM
- Fmax (monoclonal RM2 antibody; RM2 printing concentration 100 μM): 55,756
- Kd (monoclonal RM2 antibody; RM2 printing concentration 100 μM, read-out: KD, surf): 5.1 nM
- relative binding specificity of RM2 for the epitopes (monoclonal RM2 antibody; antibody RM2): RM2>pentasaccharide 29
- Kd (monoclonal RM2 antibody; [3]): 4.54 ± 0.903 nM
- binding of induced IgG antibodies to glycan [2]: strong binding
- binding of induced antibodies to glycan, microarray of STn, DSGG, RM2 antigen, analogs and fragments [2]: mainly bound

SMILES: CC(=O)N[C@H]1[C@H](O[C@H]2[C@@H](O)[C@@H](CO)O[C@@H](OCCCCCN)[C@@H]2O)O[C@H](CO[C@]2(C(=O)O)C[C@H](O)[C@@H](NC(C)=O)[C@H]([C@H](O)[C@H](O)CO)O2)[C@@H](O)[C@@H]1O [Compound 27, (2R,4S,5R,6R)-5-acetamido-2-(((2R,3S,4R,5R,6S)-5-acetamido-6-((2R,3R,4S,5S,6R)-2-(5-aminopentyloxy)-3,5-dihydroxy-6-(hydroxymethyl)tetrahydro-2H-pyran-4-yloxy)-3,4-dihydroxytetrahydro-2H-pyran-2-yl)methoxy)-4-hydroxy-6-((1R,2R)-1,2,3-trihydroxypropyl)tetrahydro-2H-pyran-2-carboxylic acid]
- binding of induced IgG antibodies to glycan [2]: weaker binding
- binding of induced antibodies to glycan, microarray of STn, DSGG, RM2 antigen, analogs and fragments [2]: mainly bound

SMILES: CC(=O)N[C@H]1[C@H](O[C@H]2[C@@H](O)[C@@H](CO)O[C@@H](OCCCCCN)[C@@H]2O)O[C@H](CO[C@]2(C(=O)O)C[C@H](O)[C@@H](NC(C)=O)[C@H]([C@H](O)[C@H](O)CO)O2)[C@@H](O)[C@@H]1O[C@@H]1O[C@H](CO)[C@H](O)[C@H](O)[C@H]1O [Compound 28, (2R,4S,5R,6R)-5-acetamido-2-(((2R,3S,4R,5R,6S)-5-acetamido-6-((2R,3R,4S,5S,6R)-2-(5-aminopentyloxy)-3,5-dihydroxy-6-(hydroxymethyl)tetrahydro-2H-pyran-4-yloxy)-3-hydroxy-4-((2R,3R,4S,5R,6R)-3,4,5-trihydroxy-6-(hydroxymethyl)tetrahydro-2H-pyran-2-yloxy)tetrahydro-2H-pyran-2-yl)methoxy)-4-hydroxy-6-((1R,2R)-1,2,3-trihydroxypropyl)tetrahydro-2H-pyran-2-carboxylic acid]
- binding of induced IgG antibodies to glycan [2]: weaker binding

SMILES: CC(=O)NC1[C@H](O[C@@H]2[C@H](O)[C@@H](O)[C@H](O[C@H]3[C@H](O)[C@@H](CO[C@]4(C(=O)O)C[C@H](O)[C@@H](NC(C)=O)[C@H]([C@H](O)[C@H](O)CO)O4)O[C@@H](O[C@H]4[C@@H](O)[C@@H](CO)O[C@@H](OCCCCCN)[C@@H]4O)[C@@H]3NC(C)=O)O[C@@H]2CO)O[C@H](CO)[C@H](O)[C@@H]1O (stereo partly shown) [Compound 29]
- Fmax (monoclonal RM2 antibody; 29 on microarray, printing concentration 6.25 μM): 51,597
- Kd (monoclonal RM2 antibody; 29 on microarray, printing concentration 6.25 μM, read-out: KD, surf): 5.13 nM
- Fmax (monoclonal RM2 antibody; 29 on microarray, printing concentration 12.5 μM): 50,900
- Kd (monoclonal RM2 antibody; 29 on microarray, printing concentration 12.5 μM, read-out: KD, surf): 4.05 nM
- Fmax (monoclonal RM2 antibody; 29 on microarray, printing concentration 25 μM): 50,970
- Kd (monoclonal RM2 antibody; 29 on microarray, printing concentration 25 μM, read-out: KD, surf): 4.5 nM
- Fmax (monoclonal RM2 antibody; 29 on microarray, printing concentration 50 μM): 59,045
- Kd (monoclonal RM2 antibody; 29 on microarray, printing concentration 50 μM, read-out: KD, surf): 6.44 nM
- Fmax (monoclonal RM2 antibody; 29 on microarray, printing concentration 100 μM): 62,859
- Kd (monoclonal RM2 antibody; 29 on microarray, printing concentration 100 μM, read-out: KD, surf): 6.96 nM
- Kd (monoclonal RM2 antibody; [3]): 5.76 ± 1.14 nM
- binding of induced IgG antibodies to glycan [2]: weaker binding

SMILES: CC(=O)NC1C(O[C@@H]2OC(CO)[C@H](O)C(O[C@@]3(C(=O)O)CC(O)[C@H](NC(C)=O)C([C@H](O)[C@H](O)CO)O3)C2O)[C@H](O)C(CO[C@]2(C(=O)O)CC(O)[C@@H](NC(C)=O)C([C@H](O)[C@H](O)CO)O2)O[C@H]1OC1C(O)[C@H](OCCCCCN)OC(CO)[C@@H]1O (stereo partly shown) [Compound 30]
- binding of induced IgG antibodies to glycan [2]: weaker binding

SMILES: CC(=O)N[C@H]1[C@H](OCCCCCN)O[C@H](CO[C@]2(C(=O)O)C[C@H](O)[C@@H](NC(C)=O)[C@H]([C@H](O)[C@H](O)CO)O2)[C@@H](O)[C@@H]1O [Compound 33, (2R,4S,5R,6R)-5-acetamido-2-(((2R,3S,4R,5R,6R)-5-acetamido-6-(5-aminopentyloxy)-3,4-dihydroxytetrahydro-2H-pyran-2-yl)methoxy)-4-hydroxy-6-((1R,2R)-1,2,3-trihydroxypropyl)tetrahydro-2H-pyran-2-carboxylic acid]
- binding of induced antibodies to glycan, microarray of STn, DSGG, RM2 antigen, analogs and fragments [2]: a lesser extent

SMILES: CC(=O)NC1C(OC2C(O)C(OCCCCCN)OC(CO)[C@H]2O)OC(CO[C@]2(C(=O)O)CC(O)[C@@H](NC(C)=O)C([C@H](O)[C@H](O)CO)O2)[C@@H](O)C1O (stereo partly shown) [Compound 34]
- binding of induced antibodies to glycan, microarray of STn, DSGG, RM2 antigen, analogs and fragments [2]: a lesser extent

SMILES: CC(=O)N[C@H]1[C@H]([C@H](O)[C@H](O)CO)O[C@@](OC[C@H]2OC(O)[C@H](O)[C@@H](O)[C@H]2O)(C(=O)O)C[C@@H]1O (stereo partly shown) [NeuAcα2→6Gal, reference compound]
- binding of induced antibodies to glycan, microarray of STn, DSGG, RM2 antigen, analogs and fragments [2]: no detectable signal of binding
